Data published in US11485987B2, “Methods for inducing bioorthogonal reactivity” (University of Delaware, priority 2015, dated 2022).
Numbering of substitutions follows the chain as printed.

Tests used:
[1] = Tetrazine hydrolytic stability in PBS; format: physicochemical; conditions: 800 μM, PBS buffer, 25° C.
From the text: A challenge to the development of catalytic methods for turning on the tetrazine ligation was the identification of a DHTz/Tz pair that would be stable in both oxidation states (FIG. 1, panel B). For most redox couples, either the DHTz is too readily oxidized in air (e.g., 1), or the Tz is too reactive toward water and other nucleophiles (e.g., 2). The inventors show here that the dipyridyl DHTz/Tz pair (3/4) has good stability in both states (FIG. 1, panel C). Dihydrotetrazines 3 are highly resistant toward background oxidation in organic solvents, and a number of derivatives have been synthesized and shown stable even to silica gel chromatography. […] Aqueous solutions of 3a were handled in glassware that had been first rinsed with 2.0 mM EDTA in PBS to remove adventitious metal impurities. After standing in the dark at 25° C. in PBS buffer, a solution of 3a was monitored by UV-vis and shown to retain 99 and 96% of the DHTz oxidation state over 30 min and 2.5 hours respectively. […] In PBS containing 10% mouse serum, 90% of 3a was retained in the DHTz oxidation state after 1 h. […]
Solutions (1 mL) containing 4a (800 μM) in PBS buffer were prepared in cuvettes from stock solutions. Tetrazine concentration was measured by recording the absorbance at 525 nm every 20 minutes while holding the cuvette at either 25 for 24 hours.

[2] = NIR photocatalytic oxidation/Diels-Alder/payload release (methylene blue, 660 nm LED); conditions: 28 μM in MeOH, methylene blue 7 μM, LED 660 nm 9.1 mW/cm^2
Description: Encouraged by calculation, the inventors synthesized the compound 7, where p-nitrophenol serves as a model payload that can be readily monitored by UV and NMR (FIG. 7, panel A). To study the Diels-Alder/elimination sequence […], the inventors chose to oxidize 7 with Dess-Martin periodinane—a reagent that instantaneously oxidizes dihydrotetrazines to tetrazines. […] Upon LED irradiation (660 nm, 9.1 mW/cm^2) of 7 (28 μM) in MeOH in the presence of catalytic methylene blue (7 μM), complete oxidation/Diels-Alder/payload release within 15 minutes was observed (FIG. 7, panel B). In this photocatalytic reaction, aliquots by ESI-MS were analyzed, and intermediates 8 and 9 were not detected.
[…]. […] The reaction of 12 to produce 13 and 14 could also be promoted by irradiating a solution of 12 in 60% H2O/MeOH for 30 min with a 660 nm LED light source in the presence of catalytic amounts of methylene blue with monitoring by UV-Vis. The complete conversion to product 13 could be observed by UV-vis within 30 minutes.

APEX2 (SEQ ID NO:1) = target: T1, APEX2 (SEQ ID NO:1) (Glycine max, UniProt Q43758, A134P/E112K/K14D/W41F); assay: Oxidation of DHT by APEX2, UV-Vis initial rates and kinetic parameters; format: biochemical; conditions: PBS, 100 μM EDTA, first 100 s; for Initial rate of oxidation of DHT by APEX2 (SEQ ID NO: 1) + SOD: SOD 1 μM
T1 sequence (Q43758 1-250 A134P/E112K/K14D/W41F): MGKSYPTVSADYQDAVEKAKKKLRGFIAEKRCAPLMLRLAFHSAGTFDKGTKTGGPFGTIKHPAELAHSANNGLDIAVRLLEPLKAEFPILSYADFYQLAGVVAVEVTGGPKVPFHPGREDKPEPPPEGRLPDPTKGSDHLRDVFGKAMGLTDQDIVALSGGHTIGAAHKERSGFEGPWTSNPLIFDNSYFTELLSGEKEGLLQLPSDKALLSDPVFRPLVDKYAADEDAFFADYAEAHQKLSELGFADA
Description: (§1) UV-Vis and fluorescence measurements were conducted in quartz cuvettes. All reactions were conducted in phosphate buffered saline (PBS) containing 100 μM EDTA with a pH=7.4. The PBS was prepared by adding 25 mM phosphate salts (Na2HPO4 and NaH2PO4), 100 mM NaCl, 100 μM EDTA to DI water. EDTA was added to quench free metals that can oxidize DHT. The buffer was pH adjusted to 7.4 using 1 mM HCl and 1 mM NaOH. UV experiments were stirred at 25° C. in a temperature-controlled cuvette holder of the spectrophotometer. Solutions of 15 or 16 were prepared from methanol stock solutions.
15 or 16 (60 μM) from methanol stock solutions was added to PBS containing 100 μM EDTA. After 10s, APEX2 (SEQ ID NO:1) (275 nM) was dosed in and oxidation was monitored at 325 nm for 15 and 285 nm for 16 at 60s intervals (FIG. 10B-C).
16 (15 μM) DHT from methanol stock solutions was added to PBS containing 100 μM EDTA. After 10s, APEX2 (SEQ ID NO:1) (275 nM) or HRP (15 nM) was dosed in and oxidation was monitored at 285 nm at 10s intervals (FIG. 10D)
(§2) SOD (1 μM) was added to PBS containing 100 μM EDTA. 15 or 16 (60 μM) was added from methanol stock solutions. After 10s, APEX2 (SEQ ID NO:1) or F41A APEX2 (275 nM) was dosed in and oxidation was monitored at 325 nm for 15 and 285 nm for 16 at 60s intervals.
(§3) The initial rate of oxidation was calculated from the first 100 seconds after APEX2 (SEQ ID NO:1) or F41A APEX2 was added ([…]). In the assays where SOD was added, SOD (1 μM) was added to PBS containing 100 μM EDTA and 15 or 16 was dosed in. 10 seconds later, APEX2 (SEQ ID NO:1) or F41A APEX2 ([…]) was added and the rate of oxidation was calculated from the first 100 seconds after APEX2 (SEQ ID NO:1) or F41A APEX2 ([…]) addition. The initial rate of oxidation was adjusted to background oxidation of DHT in PBS with 100 μM EDTA. Kinetic parameters (Table 2) were determined using GraphPad's Prism 6 software from the data presented below (Table 3-4).

F41A APEX2 = target: T2, F41A APEX2 (Glycine max, UniProt Q43758, A134P/E112K/K14D/W41A); assay: Oxidation of DHT by F41A APEX2, UV-Vis initial rates and kinetic parameters; format: biochemical; conditions: for Initial rate of oxidation of DHT by F41A APEX2 + SOD: SOD 1 μM, PBS, 100 μM EDTA, first 100 s
T2 sequence (Q43758 1-250 A134P/E112K/K14D/W41A): T1 sequence (Q43758 1-250 A134P/E112K/K14D/W41F) with F41A
Description: as §1, §2, §3

O=C(O)CCC(=O)Nc1ccc(-c2nnc(-c3ccccn3)nn2)nc1 [4a, 4-oxo-4-((6-(6-(pyridin-2-yl)-1,2,4,5-tetrazin-3-yl)pyridin-3-yl)amino)butanoic Acid]
tetrazine fidelity ([1]; 2 h): 98%
tetrazine fidelity ([1]; 24 h): 83%

CCCCN(C(=O)/C=C/Oc1ccc([N+](=O)[O-])cc1)c1cccnc1C1=NNC(c2ccccn2)=NN1 [compound 7, (E)-N-butyl-3-(4-nitrophenoxy)-N-(2-(6-(pyridin-2-yl)-1,4-dihydro-1,2,4,5-tetrazin-3-yl)pyridin-3-yl)acrylamide]
time to complete oxidation/Diels-Alder/payload release [2]: ≤ 15 min

CCCCNC(=O)C1=NNC(c2ccccn2)=NN1 [compound 16]
Initial rate of oxidation of DHT by APEX2 (SEQ ID NO: 1) + SOD (APEX2 (SEQ ID NO:1); DHT 4 μM): 0.429 +/− 0.022 ×10^−8 M/s
Initial rate of oxidation of DHT by APEX2 (SEQ ID NO: 1) (APEX2 (SEQ ID NO:1); DHT 5 μM): 0.319 +/− 0.056 ×10^−8 M/s
Initial rate of oxidation of DHT by APEX2 (SEQ ID NO: 1) (APEX2 (SEQ ID NO:1); DHT 10 μM): 0.673 +/− 0.002 ×10^−8 M/s
Initial rate of oxidation of DHT by APEX2 (SEQ ID NO: 1) + SOD (APEX2 (SEQ ID NO:1); DHT 10 μM): 1.011 +/− 0.170 ×10^−8 M/s
Initial rate of oxidation of DHT by APEX2 (SEQ ID NO: 1) (APEX2 (SEQ ID NO:1); DHT 15 μM): 0.810 +/− 0.081 ×10^−8 M/s
Initial rate of oxidation of DHT by APEX2 (SEQ ID NO: 1) + SOD (APEX2 (SEQ ID NO:1); DHT 15 μM): 1.662 +/− 0.004 ×10^−8 M/s
Initial rate of oxidation of DHT by APEX2 (SEQ ID NO: 1) (APEX2 (SEQ ID NO:1); DHT 20 μM): 1.169 +/− 0.095 ×10^−8 M/s
Initial rate of oxidation of DHT by APEX2 (SEQ ID NO: 1) (APEX2 (SEQ ID NO:1); DHT 30 μM): 1.131 +/− 0.182 ×10^−8 M/s
Initial rate of oxidation of DHT by APEX2 (SEQ ID NO: 1) + SOD (APEX2 (SEQ ID NO:1); DHT 30 μM): 2.073 +/− 0.046 ×10^−8 M/s
Initial rate of oxidation of DHT by APEX2 (SEQ ID NO: 1) (APEX2 (SEQ ID NO:1); DHT 40 μM): 1.427 +/− 0.265 ×10^−8 M/s
Initial rate of oxidation of DHT by APEX2 (SEQ ID NO: 1) + SOD (APEX2 (SEQ ID NO:1); DHT 40 μM): 2.379 +/− 0.350 ×10^−8 M/s
Initial rate of oxidation of DHT by APEX2 (SEQ ID NO: 1) (APEX2 (SEQ ID NO:1); DHT 45 μM): 1.376 +/− 0.071 ×10^−8 M/s
Initial rate of oxidation of DHT by APEX2 (SEQ ID NO: 1) + SOD (APEX2 (SEQ ID NO:1); DHT 45 μM): 2.234 +/− 0.088 ×10^−8 M/s
Initial rate of oxidation of DHT by APEX2 (SEQ ID NO: 1) (APEX2 (SEQ ID NO:1); DHT 50 μM): 1.438 +/− 0.017 ×10^−8 M/s
Initial rate of oxidation of DHT by APEX2 (SEQ ID NO: 1) + SOD (APEX2 (SEQ ID NO:1); DHT 50 μM): 2.149 +/− 0.009 ×10^−8 M/s
Initial rate of oxidation of DHT by APEX2 (SEQ ID NO: 1) + SOD (APEX2 (SEQ ID NO:1); DHT 55 μM): 2.503 +/− 0.210 ×10^−8 M/s
Initial rate of oxidation of DHT by APEX2 (SEQ ID NO: 1) (APEX2 (SEQ ID NO:1); DHT 60 μM): 1.396 +/− 0.123 ×10^−8 M/s
Initial rate of oxidation of DHT by APEX2 (SEQ ID NO: 1) + SOD (APEX2 (SEQ ID NO:1); DHT 60 μM): 2.376 +/− 0.450 ×10^−8 M/s
Initial rate of oxidation of DHT by APEX2 (SEQ ID NO: 1) + SOD (APEX2 (SEQ ID NO:1); DHT 70 μM): 2.746 +/− 0.180 ×10^−8 M/s
Initial rate of oxidation of DHT by APEX2 (SEQ ID NO: 1) (APEX2 (SEQ ID NO:1); DHT 75 μM): 1.766 +/− 0.080 ×10^−8 M/s
Initial rate of oxidation of DHT by APEX2 (SEQ ID NO: 1) (APEX2 (SEQ ID NO:1); DHT 85 μM): 1.695 +/− 0.114 ×10^−8 M/s
Initial rate of oxidation of DHT by APEX2 (SEQ ID NO: 1) + SOD (APEX2 (SEQ ID NO:1); DHT 90 μM): 2.491 +/− 0.032 ×10^−8 M/s
Initial rate of oxidation of DHT by F41A APEX2 + SOD (F41A APEX2; DHT 5 μM): 0.334 +/− 0.010 ×10^−8 M/s
Initial rate of oxidation of DHT by F41A APEX2 + SOD (F41A APEX2; DHT 10 μM): 0.642 +/− 0.035 ×10^−8 M/s
Initial rate of oxidation of DHT by F41A APEX2 + SOD (F41A APEX2; DHT 15 μM): 1.124 +/− 0.034 ×10^−8 M/s
Initial rate of oxidation of DHT by F41A APEX2 + SOD (F41A APEX2; DHT 20 μM): 2.132 +/− 0.035 ×10^−8 M/s
Initial rate of oxidation of DHT by F41A APEX2 + SOD (F41A APEX2; DHT 25 μM): 2.568 +/− 0.131 ×10^−8 M/s
Initial rate of oxidation of DHT by F41A APEX2 + SOD (F41A APEX2; DHT 30 μM): 2.129 +/− 0.076 ×10^−8 M/s
Initial rate of oxidation of DHT by F41A APEX2 + SOD (F41A APEX2; DHT 35 μM): 3.078 +/− 0.025 ×10^−8 M/s
Initial rate of oxidation of DHT by F41A APEX2 + SOD (F41A APEX2; DHT 40 μM): 2.964 +/− 0.011 ×10^−8 M/s
Initial rate of oxidation of DHT by F41A APEX2 + SOD (F41A APEX2; DHT 50 μM): 3.867 +/− 0.049 ×10^−8 M/s
Initial rate of oxidation of DHT by F41A APEX2 + SOD (F41A APEX2; DHT 55 μM): 3.709 +/− 0.336 ×10^−8 M/s
Initial rate of oxidation of DHT by F41A APEX2 + SOD (F41A APEX2; DHT 75 μM): 4.549 +/− 0.150 ×10^−8 M/s
Initial rate of oxidation of DHT by F41A APEX2 + SOD (F41A APEX2; DHT 85 μM): 5.098 +/− 0.571 ×10^−8 M/s
factor of increase of rate of catalysis versus APEX2 (SEQ ID NO:1) (F41A APEX2; F41A APEX2 mutant with SOD): 5
